# Laboratory results taken from US10220026B2, “Micelle containing epirubicin-complexed block copolymer and anti-cancer agent, and pharmaceutical composition containing said micelle applicable to treatment of cancer, resistant cancer or metastatic cancer” (priority 2014, dated 2019).
# Tests used:
# [1] = system: cisplatin-resistant lung cancer cells (H460); experiment: Elimination of epirubicin and eFluxx-ID-GFP by resistant strain (confocal microscopy), lung cancer; format: cell-based, human; settings: concentrations of Table 6
# Description: (§1) Epirubicin-resistant breast cancer cells (MCF-7) and cisplatin-resistant lung cancer cells (H460) were respectively disseminated in each of the wells of an 8-well Tek chambered cover glass (Thermo Fisher Scientific K.K.) at 1×10^4 cells/well followed by culturing overnight. The medium was then replaced with 200 μl of RPMI1640 (phenol red-free) containing 0.1 μg/ml of Hoechst 33342 and 10% FBS.
# (§2) 200 μl of eFluxx-ID-GFP solution were added 1 hour after addition of drug. The medium was replaced with RPMI1640 medium containing 10% FBS 30 minutes after addition followed by observation with an LSM780 confocal microscope and taking photographs thereof (FIGS. 12B and 13B). Cells subjected to the procedure prior to acquiring resistance were used as a control and epirubicin was added for the drug. In this experiment, fluorescence-labeled epirubicin (manufacturer) was used for the epirubicin.
# [2] = system: Epirubicin-resistant breast cancer cells (MCF-7); experiment: Elimination of epirubicin and eFluxx-ID-GFP by resistant strain (confocal microscopy), breast cancer; format: cell-based, human; settings: epirubicin-resistant strain; concentrations of Table 6
# Description: as §1, §2
# [3] = system: MSTO-211H mesothelioma cells; experiment: Aldefluor assay (FACS) on cancer stem cells in mesothelioma; format: cell-based, human; settings: 1 μM cisplatin, 0.01 μM pemetrexed, 0.001 μM staurosporine, 0.01 μM UCN-1; 72 hours or 24 hours
# [4] = Incorporation of compounds in micelles of epirubicin-conjugated block copolymer (HPLC, DLS); format: physicochemical; settings: for detection of the compound in micelles formed by epirubicin-conjugated block copolymer: micelles produced by the method of Example 1
# Description: The mixed solution was applied to a rotary evaporator (N-1200AV (Elyra)) followed by evaporating the methanol. After having evaporated the methanol, HEPES buffer (10 mM, pH 7.4, 50 ml) was added to the flask followed by carrying out sonication for 30 minutes (Bioruptor, Cosmo Bio Co., Ltd., Japan). Subsequently, the solution was passed through a polyethersulfone (PES) filter (0.22 μm) (Millipore Corp.). The solution was further purified by subjecting to five rounds of ultrafiltration (molecular weight cutoff: 30,000 Da) (Centricon Plus-20, Millipore Corp.) for 15 minutes (while adding 5 ml of HEPES buffer (10 mM, pH 7.4) for each round of ultrafiltration) followed by concentrating to 15 ml. Finally, the solution was passed through a PES filter (0.22 μm).
# [5] = system: mouse kidney cancer-derived cells (Renca); experiment: In vivo anti-cancer activity in orthotopic kidney cancer model (survival, lung metastasis, CD105); settings: Balb/c mice, intravenous, epirubicin equivalent 6 mg/kg, Days 4, 11, 18
# Description: 2×10^4 mouse kidney cancer-derived cells (Renca) (50 μl, containing 10% Matrigel) were administered into the renal capsules of Balb/c mice using the method described in Dinney, C. […] Four days after administering into the kidney, the drugs indicated in the following table were diluted to their prescribed dosages with physiological saline for injection (Otsuka Pharmaceutical Co., Ltd.) and administered into the caudal vein (on Days 4, 11 and 18).
# HEPES solution was administered instead of a drug for use as a negative control. […] The days in which the animals died were recorded, and survival curves were verified according to the Kaplan-Meier method using Prism software and the presence of significant differences was tested using the log-rank test.
# Sixty days later, the diameters of tumors that had metastasized to the lung were measured by 3DμCT (R-mCT2m, Rigaku Corp., Japan) for the experimental animals, or in the case an animal had died, the radius was measured directly following autopsy followed by determination of tumor volume (using the equation 4/3×π×r^3). […] Moreover, the number of cells expressing the stem cell marker, CD105, was measured by flow cytometry.
# [6] = system: cisplatin-resistant human lung cancer H460-luc cells; experiment: In vivo anti-cancer activity in orthotopic lung cancer model (survival); settings: female nude mice, intravenous, epirubicin equivalent 6 mg/kg, Days 4, 11, 18, 25, 32
# Description: Luciferase-expressing lung cancer H460-luc cells (JCRB) were cultured for 3 months in medium containing 1 μg/ml of cisplatin to acquire a cisplatin-resistant strain. 2×10^6 cells of the cisplatin-resistant strain H460-luc (containing 10% Matrigel (Becton Dickinson) were implanted into the left lower lobe of the lungs of female nude mice in accordance with the method described in Fushiki, et al., Cancer Sci., 2009 August, 100(8). Four days after implant, the drugs indicated in the following table were diluted to their prescribed dosages with physiological saline for injection (Otsuka Pharmaceutical Co., Ltd.) and administered into the caudal vein (on Days 4, 11, 18, 25 and 32).
# HEPES solution was administered instead of a drug for use as a negative control. […] D-luciferin (Summit Pharmaceuticals International Corp.) was administered intraperitoneally and luminescence intensity of the luciferase was measured twice a week using an IVIS Imaging System (Summit Pharmaceuticals International Corp.) (FIG. 8A). Survival curves were verified according to the Kaplan-Meier method using Prism software and the presence of significant differences was tested using the log-rank test.
# [7] = system: epirubicin-resistant human mesothelioma cells (MSTO-211H-luc); experiment: In vivo anti-cancer activity in orthotopic mesothelioma model (survival); settings: female nude mice, intravenous, epirubicin equivalent 6 mg/kg, Days 5-63
# Description: Human mesothelioma MSTO-211H was transfected with luciferase based on the method described in Mol. Ther., 2012 April, 20(4), 769-777 to obtain a luciferase-expressing strain (MSTO-211H-luc). MSTO-211H-luc cells were cultured for 3 months in medium containing 0.2 μg/ml of epirubicin to produce epirubicin-resistant human mesothelioma cells (MSTO-211H-luc). 1×10^6 of the epirubicin-resistant MSTO-211H-luc cells were administered into the thoracic cavity of female nude mice to produce an orthotopic implant model. Five days after administration, drugs at the dosages shown in the following table were diluted with physiological saline for injection (Otsuka Pharmaceutical Co., Ltd.) and administered into the caudal vein (on Days 5, 9, 13, 23, 33, 43, 53 and 63).
# HEPES solution was administered instead of a drug for use as a negative control. […] D-luciferin (Summit Pharmaceuticals International Corp.) was administered intraperitoneally, and body weights of the mice were measured simultaneous to measuring luminescence intensity of the luciferase twice a week using an IVIS Imaging System (Summit Pharmaceuticals International Corp.) (FIGS. 6A to 6C). […] Significant differences as determined with a log-rank test were observed between the negative control and Epi (P=0.016), between Epi and Epi Micelle (P=0.0001) and between Epi Micelle and STS+Epi Micelle (P=0.0012).
# [8] = system: cisplatin-resistant lung cancer cells (H460 Cis-R); experiment: eFluxx-ID Green Multidrug Resistance Assay (drug elimination activity, MAF), lung cancer; format: cell-based, human; settings: 30 μM
# Description: (§3) More specifically, after detaching each of the cultured cells by incubating in trypsin-EDTA solution, the cells were washed with medium to obtain cell suspensions having a concentration of 1×10^4 cells/ml. […] 125 μl of eFluxx-ID-GFP solution were added 1 hour after addition of drug at the concentration directed in the kit. Following addition, the cell suspensions were incubated for 30 minutes at 37° C. followed by the addition of DAPI at a final concentration of 0.5 μg/ml and analyzing with a flow cytometer (BD LSR II, BD Biosciences). MAF values shown in the figures refer to the multidrug resistance activity factor (MAF) calculated from the mean fluorescence intensity of flow cytometry, and a high value for MAF indicates a greater inhibitory effect on ABC transporters. The calculation formulas were as indicated below: MAFMDR-1=100×(FMDR-1−F0)/FMDR-1 MAFMRP=100×(FMRP−F0)/FMRP NAFBCRP=100×(FBCRP−F0)/FBCRP [Equation 4] (wherein, F represents the mean flow cytometry value during addition of inhibitor, and F0 represents the mean flow cytometry value when inhibitor is not added).
# [9] = system: Mesothelioma cell line MSTO-211H cells; experiment: Effect of micelle incorporation during addition of hAGP, Cell Counting Kit-8 cell survival; format: cell-based, human; settings: hAGP 0.5 mg/ml; STS 0.02 μg/ml, epirubicin 0.1 μg/ml
# Description: Anti-cancer activity was measured according to the method indicated below using the Cell Counting Kit-8 (Dojindo, Japan). Mesothelioma cell line MSTO-211H cells were disseminated at 1×10^3 cells/well to 3×10^3 cells/well and cultured. The medium was replaced on the following day followed by the addition of 50 μl of medium. […] 72 hours later, 10 μl of Cell Counting Kit-8 were added followed by measuring optical absorbance at 450 nm 1 hour later with a microplate reader (Model 680, BioRad, Hercules, Calif.). […] Cell survival rate (%)=[(As−Ab)/(Ac−Ab)×100 [Equation 2]
# In the equation, As indicates the optical absorbance of the specimen (wells containing cells, test substance and Cell Counting Kit solution), Ac indicates the optical absorbance of a negative control (wells containing only cells and Cell Counting Kit solution) (absence of test substance), and Ab indicates the optical absorbance of a blank (cell-free wells containing only medium and Cell Counting Kit solution).
# [10] = system: epirubicin-resistant breast cancer cells (MCF-7 EPI-R); experiment: eFluxx-ID Green Multidrug Resistance Assay (drug elimination activity, MAF), breast cancer; format: cell-based, human; settings: 30 μM
# Description: as §3
# [11] = system: Hela cells highly expressing BCRP; experiment: eFluxx-ID Green Multidrug Resistance Assay (drug elimination activity, MAF), BCRP; format: cell-based; settings: 30 μM
# Description: as §3
# [12] = system: epirubicin-resistant mesothelioma cells (MSTO-211H EPI-R); experiment: eFluxx-ID Green Multidrug Resistance Assay (drug elimination activity, MAF), mesothelioma; format: cell-based, human; settings: 30 μM
# Description: as §3
# [13] = system: A549 cells highly expressing MRP; experiment: eFluxx-ID Green Multidrug Resistance Assay (drug elimination activity, MAF), MRP; format: cell-based; settings: 30 μM
# Description: as §3
structure (smiles),measurement,setting,value
COc1ccc(CCN(C)CCCC(C#N)(c2ccc(OC)c(OC)c2)C(C)C)cc1OC (stereo not drawn) [verapamil],elimination of epirubicin and eFluxx-ID outside the cells,[1],localized within the cells
same,elimination of epirubicin and eFluxx-ID outside the cells,[2],localized within the cells
N.N.[Cl][Pt][Cl] [cisplatin],Aldefluor-positive cells (cancer stem cells),[3],increased
Cn1cc(C2=C(c3cn(C4CCN(Cc5ccccn5)CC4)c4ccccc34)C(=O)NC2=O)c2ccccc21 [enzastaurin],detection of the compound in micelles formed by epirubicin-conjugated block copolymer,[4],unable to be detected in the micelles
"COc1cccc2c1C(=O)c1c(O)c3c(c(O)c1C2=O)C[C@@](O)(C(=O)CO)C[C@@H]3O[C@H]1C[C@H](N)[C@@H](O)[C@H](C)O1 [Epi, epirubicin]","survival, log-rank test P versus negative control",[5],0.0001
same,"survival, significant difference versus negative control (log-rank test P)",[6],not observed
same,elimination of epirubicin and eFluxx-ID outside the cells,[1],eliminated outside cells
same,"survival, log-rank test P versus negative control",[7],0.016
same,elimination of epirubicin and eFluxx-ID outside the cells,[2],eliminated outside cells
"C[C@]12O[C@H](C[C@]1(O)CO)n1c3ccccc3c3c4c(c5c6ccccc6n2c5c31)CNC4=O [CEP701/lestaurtinib, lestaurtinib]",detection of the compound in micelles formed by epirubicin-conjugated block copolymer,[4],able to be detected in the micelles
CS(=O)(=O)c1ccc(C(=O)Nc2ccc(Cl)c(-c3ccccn3)c2)c(Cl)c1 [vismodegib],detection of the compound in micelles formed by epirubicin-conjugated block copolymer,[4],unable to be detected in the micelles
CN[C@@H]1C[C@H]2O[C@@](C)([C@@H]1OC)n1c3ccccc3c3c4c(c5c6ccccc6n2c5c31)C(=O)NC4 [staurosporine],Aldefluor-positive cells (cancer stem cells),[3],decreased
same,elimination of drug (eFluxx-ID) from cells,[8],prevented elimination
same,effect of addition of human α-acid glycoprotein (hAGP) on cell survival rate,[9],significant increase in cell survival rate
same,elimination of drug (eFluxx-ID) from cells,[10],prevented elimination
same,elimination of drug (eFluxx-ID) from cells,[11],prevented elimination
same,elimination of drug (eFluxx-ID) from cells,[12],prevented elimination
same,dispersibility of staurosporine-incorporating epirubicin micelle,[4]; epirubicin:staurosporine weight ratio of 1:1,dispersibility increased
same,polydispersivity of staurosporine-incorporating epirubicin micelle,"[4]; epirubicin:staurosporine weight ratio of 1:2, unsuitable as incorporating micelle",polydispersivity increased
same,incorporation of staurosporine in the epirubicin micelle,[4]; epirubicin:staurosporine weight ratio of 5:1,complete incorporation
same,detection of the compound in micelles formed by epirubicin-conjugated block copolymer,[4],able to be detected in the micelles
same,elimination of drug (eFluxx-ID) from cells,[13],prevented elimination
Nc1nc2[nH]cc(CCc3ccc(C(=O)N[C@@H](CCC(=O)O)C(=O)O)cc3)c2c(=O)[nH]1 [pemetrexed],Aldefluor-positive cells (cancer stem cells),[3],increased
COC(=O)[C@H]1[C@H]2C[C@@H]3c4[nH]c5cc(OC)ccc5c4CCN3C[C@H]2C[C@@H](OC(=O)c2cc(OC)c(OC)c(OC)c2)[C@@H]1OC [reserpine],detection of the compound in micelles formed by epirubicin-conjugated block copolymer,[4],able to be detected in the micelles
CO[C@@H]1[C@H](N(C)C(=O)c2ccccc2)C[C@H]2O[C@]1(C)n1c3ccccc3c3c4c(c5c6ccccc6n2c5c31)C(=O)NC4 [PKC412],detection of the compound in micelles formed by epirubicin-conjugated block copolymer,[4],able to be detected in the micelles
"CN[C@@H]1C[C@H]2O[C@@](C)([C@@H]1OC)n1c3ccccc3c3c4c(c5c6ccccc6n2c5c31)C(=O)N[C@H]4O [UCN-01, 7-hydroxystaurosporine]",Aldefluor-positive cells (cancer stem cells),[3],decreased
same,detection of the compound in micelles formed by epirubicin-conjugated block copolymer,[4],able to be detected in the micelles
